According to patent US5650154A (priority 1989, dated 1997):

Test system: polyclonal serum raised against the native antigen
Experiment: Reaction of peptide with polyclonal serum raised against the native antigen
Type: binding, rabbits
Conditions: rabbit serum

“ELVALSNSITAQQMAMMAZASPA [Peptide (b), Tryptic peptide of the H. contortus antigen purified by HPLC]” was tested, and the “reaction with polyclonal serum raised against the native antigen” value was “reacts strongly”.
